Data reported in ChEMBL document CHEMBL1122466, “Synthesis of partially modified retro-inverso substance P analogues and their biological activity” (1983).
Residues, ends and D or L forms follow the SMILES beside them.

What was measured:
Cavia porcellus [1] = species: Cavia porcellus; assay: Relative potency in guinea pig ileum assay.; type: functional
Cavia porcellus [2] = species: Cavia porcellus; assay: ED50 represents the concentration of the agonist in the organ bath corresponding to 50% of the maximal measured spasmogenic effect.; type: functional

| Compound | Relative potency (Cavia porcellus [1]) | ED50 (Cavia porcellus [2]) |
| --- | --- | --- |
| CSCC[C@@H](NC(=O)[C@H](CC(C)C)NC(=O)CC(=O)N[C@H](Cc1ccccc1)NC(=O)[C@@H](Cc1ccccc1)NC(=O)[C@@H]1CCC(=O)N1)C(N)=O | 22 | 0.9 nM |
| CSCC[C@H](NC(=O)[C@H](CC(C)C)NC(=O)CNC(=O)[C@H](Cc1ccccc1)NC(=O)[C@@H](Cc1ccccc1)C(=O)N[C@@H]1CCC(=O)N1)C(N)=O (HELM PEPTIDE1{[O=C1CC[C@@H](NC(=O)[C@H](Cc2ccccc2)C(=O)[*:2])N1].F.G.L.M.[am]}$$$$V2.0) | <0.01 |  |
